This is an account of results in patent US6689779B2, “Oxazolidinone derivatives and a process for the preparation thereof” (priority 2000, dated 2004).

≈ marks a conversion by molar mass, not a printed value. Some results are limits rather than exact numbers.

One assay concerns ATCC 35837: Ethanmbutol resistant Mycobacterium tuberculosis. Briefly: Assay for in vitro antibacterial activity, agar dilution method: ATCC 35837. In kind it is cell-based. The settings on record: Mycobacterium tuberculosis, ATCC35837, read-out: Antibacterial Activity (MIC50) ATCC 35837.
Take `N[C@@H]1CON=C1O` [Cycloserine, reference compound]: the MIC50 was 6.25 µg/mL (≈ 61.2 µM). As for `CC(=O)NC[C@H]1CN(c2ccc(N3CCOCC3)c(F)c2)C(=O)O1` [Example U-100766, reference compound], the MIC50 was 1.56 µg/mL (≈ 4.62 µM). Same read-out and setting: the same measure for `CO[C@H]1/C=C/O[C@@]2(C)Oc3c(C)c(O)c4c(O)c(c(/C=N/N5CCN(C)CC5)c(O)c4c3C2=O)NC(=O)/C(C)=C\C=C\[C@H](C)[C@H](O)[C@@H](C)[C@@H](O)[C@@H](C)[C@H](OC(C)=O)[C@@H]1C` [Rifampin, reference compound]: 0.2 µg/mL (≈ 0.243 µM).

The assay is the same for the next values; noted with them: agar dilution method; Ethanmbutol resistant Mycobacterium tuberculosis.
Take `CC(=O)NC[C@H]1CN(c2ccc(-c3ccc(-n4cncn4)nc3)c(F)c2)C(=O)O1` [Exmp. 129, (S)-[N-3-(4-(2-(1,2,4-triazol-1-yl)pyridin-5-yl)-3-fluorophenyl)-2-oxo-5-oxazolidinyl]methyl acetamide]: the “Antibacterial Activity (MIC50) ATCC 35837” value stood at 0.2 µg/mL.

With `CC(=O)NC[C@H]1CN(c2ccc(-c3ccc(-n4cnnn4)nc3)c(F)c2)C(=O)O1` [Exmp. 136, (S)-(N-3-(4-(2-(1-tetrazolyl)-pyridin-5-yl)-3-fluorophenyl)-2-oxo-5-oxazolidinyl)methyl acetamide], the “Antibacterial Activity (MIC50) ATCC 35837” value was determined as 0.1 µg/mL. Still for that read-out and setting: then `CC(=O)NC[C@H]1CN(c2ccc(-c3ccc(-c4nnc(C)o4)nc3)c(F)c2)C(=O)O1` [Exmp. 137, (S)-[N-3-(4-(2-(5-methyl-(1,3,4)-oxadiazol-2-yl)-pyridin-5-yl)-3-fluorophenyl)-2-oxo-5-oxazolidinyl]methyl acetamide], with 0.1 µg/mL; and `CC(=O)NC[C@H]1CN(c2ccc(-c3ccc(-c4noc(C)n4)nc3)c(F)c2)C(=O)O1` [Exmp. 138, (S)-[N-3-(4-(2-(5-methyl-(1,2,4)-oxadiazol-3-yl)pyridin-5-yl)-3-fluorophenyl)-2-oxo-5-oxazolidinyl]methyl acetamide], with 0.1 µg/mL; and `CC(=O)NC[C@H]1CN(c2ccc(-c3ccc(-c4nnnn4C)nc3)c(F)c2)C(=O)O1` [Exmp. 139, (S)-[N-3-(4-(2-(1-methyl-5-tetrazolyl)-pyridin-5-yl)-3-fluorophenyl)-2-oxo-5-oxazolidinyl]methyl acetamide], with 0.1 µg/mL. Same read-out and setting: the same measure for `CC(=O)NC[C@H]1CN(c2ccc(-c3ccc(-c4nnn(C)n4)nc3)c(F)c2)C(=O)O1` [Exmp. 140, (S)-[N-3-(4-(2-(2-methyl-5-tetrazolyl)-pyridin-5-yl)-3-fluorophenyl)-2-oxo-5-oxazolidinyl]methyl acetamide]: 0.1 µg/mL; for `CC(=O)NC[C@H]1CN(c2ccc(-c3ccc(N4CCOC4=O)nc3)c(F)c2)C(=O)O1` [Exmp. 143, (S)-[N-3-(4-(2-(2-oxo-(1,3)-oxazolidin-3-yl)-pyridin-5-yl)-3-fluorophenyl)-2-oxo-5-oxazolidinyl]methyl acetamide]: 0.1 µg/mL. Same read-out and setting: the same measure for `CC(=O)NC[C@H]1CN(c2ccc(-c3ccc(-c4nnn[nH]4)nc3)c(F)c2)C(=O)O1` [Exmp. 152, (S)-[N-3-(4-(2-(5-Tetrazolyl)-5-pyridinyl)-3-fluorophenyl)-2-oxo-5-oxazolidinyl]methyl Acetamide]: greater than 25 µg/mL.

What is called MIC50 is the lowest concentration that inhibits either 50% of growth or 50% of the strains tested, depending on the study.
